Our source for the inhibition and IC50 values is patent US20260373119A1, “NOVEL COMPOUND, AND COMPOSITION FOR PREVENTING OR TREATING HER2-POSITIVE CANCER, COMPRISING SAME” (EWHA UNIVERSITY - INDUSTRY COLLABORATION FOUNDATION, priority 2022, published 2026).

Common to all, as to format: cell-based
The target of experiment [1] is T1, ELF3-MED23 protein-protein interaction (Homo sapiens, UniProt Q9ULK4).
T1 construct: followed by the addition of either the candidate compound or MED23 protein constructs; endogenous in cells; host or cells: 293T kidney cells (MED23 endogenous; GAL4-ELF3 transfected)
T1 sequence (Q9ULK4 1-1368): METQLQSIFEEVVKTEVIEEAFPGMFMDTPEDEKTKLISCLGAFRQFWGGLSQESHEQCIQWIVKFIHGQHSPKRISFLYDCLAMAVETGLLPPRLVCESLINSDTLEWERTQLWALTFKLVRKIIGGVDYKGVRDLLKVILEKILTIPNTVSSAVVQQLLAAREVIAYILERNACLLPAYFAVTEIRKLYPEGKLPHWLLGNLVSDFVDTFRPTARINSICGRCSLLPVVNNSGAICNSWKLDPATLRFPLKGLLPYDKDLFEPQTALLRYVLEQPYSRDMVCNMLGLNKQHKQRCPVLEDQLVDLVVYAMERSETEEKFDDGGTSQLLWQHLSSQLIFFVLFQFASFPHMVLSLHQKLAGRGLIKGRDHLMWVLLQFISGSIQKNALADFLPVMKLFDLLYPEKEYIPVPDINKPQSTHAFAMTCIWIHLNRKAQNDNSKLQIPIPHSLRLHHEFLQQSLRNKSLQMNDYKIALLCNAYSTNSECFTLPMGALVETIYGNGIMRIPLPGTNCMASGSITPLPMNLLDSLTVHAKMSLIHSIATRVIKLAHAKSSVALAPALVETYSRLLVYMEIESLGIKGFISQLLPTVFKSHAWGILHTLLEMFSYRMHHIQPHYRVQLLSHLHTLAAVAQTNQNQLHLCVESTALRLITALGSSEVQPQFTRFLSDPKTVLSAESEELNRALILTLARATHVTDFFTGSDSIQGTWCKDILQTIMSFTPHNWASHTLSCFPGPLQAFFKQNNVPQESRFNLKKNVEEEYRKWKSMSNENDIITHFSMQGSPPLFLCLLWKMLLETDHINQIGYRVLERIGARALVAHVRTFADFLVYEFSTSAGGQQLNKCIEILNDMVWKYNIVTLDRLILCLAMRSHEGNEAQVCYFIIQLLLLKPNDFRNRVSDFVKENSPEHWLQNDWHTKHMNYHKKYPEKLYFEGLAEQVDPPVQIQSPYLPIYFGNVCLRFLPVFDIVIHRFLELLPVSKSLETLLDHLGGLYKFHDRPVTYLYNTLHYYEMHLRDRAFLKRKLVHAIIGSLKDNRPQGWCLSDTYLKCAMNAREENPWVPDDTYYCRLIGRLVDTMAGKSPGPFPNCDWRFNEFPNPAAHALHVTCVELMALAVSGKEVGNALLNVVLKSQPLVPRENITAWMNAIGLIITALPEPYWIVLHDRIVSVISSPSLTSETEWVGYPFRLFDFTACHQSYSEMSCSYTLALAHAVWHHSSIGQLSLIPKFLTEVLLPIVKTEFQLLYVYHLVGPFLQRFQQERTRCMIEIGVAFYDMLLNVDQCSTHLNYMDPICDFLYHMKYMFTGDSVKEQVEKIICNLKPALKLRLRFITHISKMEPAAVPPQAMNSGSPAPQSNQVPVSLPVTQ
Put plainly: SEAP reporter assay, ELF3-MED23 PPI inhibition (293T kidney cells). The settings on record: HEK-293T; 10 μM. As for the experimental part: To verify whether the D400 and H449 residues play a critical role in the ELF3-MED23 protein-protein interaction, a SEAP assay was performed. Specifically, 293T kidney cells were seeded at a density of 5×10^3 cells/well in a 96-well microplate (SPL, Korea) and cultured overnight. Subsequently, the cells were co-transfected with 100 ng of each plasmid using transfection-optimized medium (Welgene, Korea). The plasmids used included the SEAP reporter gene (pG5IL2SX) and GAL4-ELF3 expression vector (pBJ GAL4-ELF3). For transfection, the cells were incubated with WelFectQ (Welgene, Korea) for 3 hours, followed by the addition of either the candidate compound or MED23 protein constructs (pcDNA MED23^WT, K397A, D400A, H449G, and D400A/H449G). The treated cells were incubated for 12 hours. The candidate compound was added in an incubator at 5% CO2 and 37 °C, and the plate was incubated at 65 °C for 3 hours to inactivate all enzymes except SEAP (Secreted Alkaline Phosphatase). A mixture comprising 100 μL of substrate solution prepared with 1.19 μL of 0.1 M 4-methylumbelliferyl phosphate (Sigma, USA), 25 μL of inactivated medium, and 75 μL of double-distilled water was added, followed by the addition of 98.81 μL of 2 M diethanolamine (pH 10, Sigma, USA). The plate was incubated overnight at 37 °C. Subsequently, the fluorescence intensity was measured using a fluorometer (SPECTRAmax […], Molecular Devices, USA) at an excitation wavelength of 360 nm and an emission wavelength of 440 nm.
To further elaborate on the above findings, small molecule compounds that could affect the ELF3-MED23 PPI were designed and synthesized. Specifically, non-essential side chains were removed from gefitnib, and compounds were designed to include both hydrogen bond donors and acceptors for the D400 and H449 residues of MED23, respectively (FIG. 4A). Specifically, chalcones and pyrazolines were selected as core scaffolds, and 25 compounds (11 chalcones and 14 pyrazoline-based compounds) were prepared. The ELF3-MED23 PPI inhibitory activity of all prepared compounds was measured using a SEAP assay.
In general terms: In a reporter assay the amount or activity of a reporter protein is the signal.

Experiment [2] concerns HCT15 (HER2-positive colorectal cancer cell line). Put plainly: antiproliferative effect, HCT15. The settings on record: Homo sapiens, HCT-15, 72 hours. As for the experimental part:
(§1) The antiproliferative effects were measured after treating Compounds 1 to 22 for 72 hours on HCT15 (HER2-positive colorectal cancer cell line), NCI-N87 (HER2-positive gastric cancer cell line), T47D (HER2-negative breast cancer cell line), and HeLa (HER2-negative cervical cancer cell line). As a result, strong antiproliferative effects were generally observed in the NCI-N87 cell line (Table 2).
(§2) The antiproliferative effects of the candidate compound, resulting from HER2 inhibition, were evaluated. Specifically, to confirm the anticancer effects of the candidate compound, cancer cells were seeded at a density of 10^4 cells/well in a 96-well cell culture plate for 20 hours. The cells were starved in serum-free media for 4 hours, followed by replacement with media containing the compound at specified concentrations. The cells were then incubated for 72 hours under conditions of 5% CO2 at 37 °C. Cell viability was determined by adding 5 μL of EZ-CytoX to each well and measuring absorbance at 450 nm. The measurements were performed using an ELISA Microplate Reader (VersaMax, Molecular Devices).

Experiment [3] has as its system NCI-N87 (HER2-positive gastric cancer cell line). Nature of the experiment: antiproliferative effect, NCI-N87. The note with it: Homo sapiens, NCI-N87; 72 hours; HER2-positive. As for the experimental part:
as §1, §2

Experiment [4] deals with T47D (HER2-negative breast cancer cell line). Nature of the experiment: antiproliferative effect, T47D. The note with it: Homo sapiens, 72 hours. As for the experimental part:
as §1, §2

Experiment [5] concerns HeLa (HER2-negative cervical cancer cell line). Nature of the experiment: antiproliferative effect, HeLa. The note with it: Homo sapiens, 72 hours. As for the experimental part:
as §1, §2

Turning to `O=C(/C=C/c1ccco1)c1ccccc1O` [Compound 8, 3-Furan-2-yl-1-(2-hydroxyphenyl)-propenone], the inhibition (as a rule, the share of the control response that was lost under treatment) at 10 µM in experiment [1] is 50%. Besides, the IC50 – broadly, the concentration needed to halve the response being measured – was > 50 µM in experiment [2], > 50 µM in experiment [3], > 50 µM in experiment [4] and 42.19 ± 0.01 µM in experiment [5].

For the molecule `CC(=O)N1N=C(c2ccccc2O)CC1c1cccs1` (centres unmarked) [Compound 21, 1-[3-(2-Hydroxyphenyl)-5-thiophen-2-yl-4,5-dihydropyrazol-1-yl]-ethanone], testing at 10 µM in experiment [1] gave an inhibition of 57%. The IC50 in experiment [2], in experiment [3], in experiment [4] and in experiment [5] was > 50 µM throughout.

In turn, `COc1ccc(C2CC(c3ccccc3O)=NN2C(C)=O)cc1` (centres unmarked) [Compound 22, 1-[3-(2-Hydroxyphenyl)-5-(4-methoxyphenyl)-4,5-dihydropyrazol-1-yl]-ethanone] gave an inhibition at 10 µM in experiment [1] of 63%. In addition, the IC50 was 40.3 ± 0.51 µM in experiment [2], > 50 µM in experiment [3], > 50 µM in experiment [4] and > 50 µM in experiment [5].

Take `COc1ccc(/C=C/C(=O)c2cccc(O)c2)cc1` [Compound 2, 1-(3-Hydroxyphenyl)-3-(4-methoxyphenyl)-propenone]: 10 µM produced 41% inhibition in experiment [1]. Also, the IC50 in experiment [2] is 8.51 ± 0.01 µM; in experiment [3], 10.7 ± 0.31 µM; in experiment [4], 18.9 ± 0.2 µM; in experiment [5] it was 9.85 ± 0.37 µM.

As for `CCC(=O)N1N=C(c2cccc(O)c2)CC1c1ccc(OC)cc1` (centres unmarked) [Compound 23, 1-[3-(3-Hydroxyphenyl)-5-(4-methoxyphenyl)-4,5-dihydropyrazol-1-yl]-propan-1-one], in experiment [1], testing at 10 µM gave an inhibition of 87%.

In turn, `CC(=O)N1N=C(c2ccccc2O)CC1c1ccc(Cl)cc1` (centres unmarked) [Compound 20, 1-[5-(4-Chlorophenyl)-3-(2-hydroxyphenyl)-4,5-dihydropyrazol-1-yl]-ethanone] registered an inhibition at 10 µM in experiment [1] of 45%. The IC50 in experiment [2], in experiment [3], in experiment [4] and in experiment [5] was > 50 µM in each case.

`O=C(/C=C/c1ccc(O)cc1)c1cccc(O)c1` [Compound 5, 3-(4-Hydroxyphenyl)-1-(3-hydroxyphenyl)-propenone] displayed an inhibition at 10 µM in experiment [1] of 60%. Besides, the IC50 is 8.97 ± 0.17 µM in experiment [2], 17.82 ± 0.17 µM in experiment [3], 9.04 ± 0.07 µM in experiment [4] and 30.02 ± 0.18 µM in experiment [5].

Molecule `CC(=O)N1N=C(c2cccc(O)c2)CC1c1ccco1` (centres unmarked) [Compound 12, 1-[5-Furan-2-yl-3-(3-hydroxyphenyl)-4,5-dihydropyrazol-1-yl]-ethanone] gave an inhibition at 10 µM in experiment [1] of 58%. Also, the IC50 in experiment [2], in experiment [3], in experiment [4] and in experiment [5] was > 50 µM throughout.

In turn, `COc1ccc(C2CC(c3cccc(O)c3)=NN2C(C)=O)c2ccccc12` (centres unmarked) [Compound 14, 1-[3-(3-Hydroxyphenyl)-5-(4-methoxynaphthalen-1-yl)-4,5-dihydropyrazol-1-yl]-ethanone] came in with an inhibition at 10 µM in experiment [1] of 14%. Besides, the IC50 in experiment [2] came out at 19.5 ± 0.41 µM; in experiment [3], 42.4 ± 0.86 µM; in experiment [4] it was 5.57 ± 0.26 µM; in experiment [5], 0.69 µM.

Molecule `CC(=O)N1N=C(c2ccccc2O)CC1c1ccco1` (centres unmarked) [Compound 17, 1-[5-Furan-2-yl-3-(2-hydroxyphenyl)-4,5-dihydropyrazol-1-yl]-ethanone] gave an inhibition at 10 µM in experiment [1] of 23%. The IC50 in experiment [2], in experiment [3], in experiment [4] and in experiment [5] was > 50 µM in each case.

On to `O=C(/C=C/c1ccc(Cl)cc1)c1ccccc1O` [Compound 10, 3-(4-Chlorophenyl)-1-(2-hydroxyphenyl)-propenone], for which the inhibition at 10 µM in experiment [1] was 80%. In addition, the IC50 was found to be 14.36 ± 0.12 µM in experiment [2], 14.38 ± 0.06 µM in experiment [3], 8.96 ± 0.02 µM in experiment [4] and 5.54 ± 0.21 µM in experiment [5].

`O=C(/C=C/c1ccc(O)cc1)c1ccccc1O` [Compound 9, 3-(4-Hydroxyphenyl)-1-(2-hydroxyphenyl)-propenone]: in experiment [1], the inhibition at 10 µM stood at 50%. The IC50 in experiment [2] is > 50 µM; in experiment [3] it was > 50 µM; in experiment [4], 27.89 ± 0.06 µM; in experiment [5] it was > 50 µM.

In turn, `CCC(=O)N1N=C(c2cccc(O)c2)CC1c1cccs1` (centres unmarked) [Compound 24, 1-[3-(3-Hydroxyphenyl)-5-thiophen-2-yl-4,5-dihydropyrazol-1-yl]-propan-1-one] yielded an inhibition at 10 µM in experiment [1] of 34%.

Turning to `CC(=O)N1N=C(c2ccccc2O)CC1c1ccc(O)cc1` (centres unmarked) [Compound 19, 1-[5-(4-Hydroxyphenyl)-3-(2-hydroxyphenyl)-4,5-dihydropyrazol-1-yl]-ethanone], the inhibition at 10 µM in experiment [1] worked out at 39%. The IC50 in experiment [2], in experiment [3], in experiment [4] and in experiment [5] was > 50 µM throughout.

As to `CCC(=O)N1N=C(c2cccc(O)c2)CC1c1ccc(Cl)cc1` (centres unmarked) [Compound 25, 1-[5-(4-Chlorophenyl)-3-(3-hydroxyphenyl)-4,5-dihydropyrazol-1-yl]-propan-1-one], in experiment [1], the inhibition at 10 µM came out at 42%.

In experiment [1], `O=C(/C=C/c1cccs1)c1ccccc1O` [Compound 11, 1-(2-Hydroxyphenyl)-3-thiophen-2-yl-propenone] yielded an inhibition at 10 µM of 50%. Further, the IC50 in experiment [2] was > 50 µM; in experiment [3], 47.76 ± 0.22 µM; in experiment [4] it was > 50 µM; in experiment [5], 44.31 ± 0.11 µM.
